Measured values reported in PubChem BioAssay AID977613 (Broad Institute, 2014).
Active and inactive are the calls of the source. No rule for the calls is given here.

system: Broad 7084-01 inhibitor HTS, set 2; test: single-concentration hits, screen 7084 set 2 (AID 977613);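 also: host cells are infected with parasite promastigotes that become internalized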

Compound | active concentration
O=C(C[C@H]1CC[C@H]2[C@@H](COC[C@H](O)CN2CC2CCOCC2)O1)NCC1CCCCC1 | > 10 µM (inactive)
COCC(=O)N1[C@H](CO)[C@@H](c2ccccc2-c2ccccc2F)[C@@H]1C#N | < 10 µM
CN1[C@@H]2CNc3ccccc3[C@@H]2[C@@H]1CO | > 10 µM (inactive)
C/C=C/c1ccc([C@H]2[C@@H](CO)N(CCC(F)(F)F)C23CN(C(=O)COC)C3)cc1 | > 10 µM (inactive)
O=C([C@@H]1N[C@@H]2c3ccc(-c4ccccc4F)c(=O)n3C[C@@H]2[C@H]1CO)N1CCc2ccccc2C1 | > 10 µM (inactive)
CCCNC(=O)[C@@H]1[C@@H](CO)[C@@H]2Cn3c(cccc3=O)[C@@H]2N1C | > 10 µM (inactive)
O=C(C1CCOCC1)N1CC(=O)N2[C@H](CO)[C@H](c3ccc(C#CCc4ccccc4)cc3)[C@@H]2C1 | > 10 µM (inactive)
O=S(=O)(c1ccccc1)N1CCCCN2[C@@H](CO)[C@@H](c3ccc(C#CC4CCCC4)cc3)[C@@H]2C1 | > 10 µM (inactive)
CCC(=O)N1CC2(C1)[C@@H](c1ccc(-c3cccc(C)c3)cc1)[C@@H](CO)N2S(C)(=O)=O | > 10 µM (inactive)
CC(C)C#Cc1ccc([C@@H]2[C@@H](CO)N3C(=O)CN(C(=O)Cc4ccccc4)C[C@H]23)cc1 | > 10 µM (inactive)
CCCC#Cc1ccc([C@H]2[C@H]3CN(C(=O)c4cccnc4)CC(=O)N3[C@H]2CO)cc1 | > 10 µM (inactive)
CC=Cc1ccc2n(c1=O)C[C@@H]1[C@@H](CO)[C@H](C(=O)N[C@@H](C)c3ccccc3)N(C(=O)c3cnccn3)[C@H]21 (mixture of isomers) | > 10 µM (inactive)
CCNC(=O)Nc1ccc2c(c1)C(=O)N(C)[C@H]1CC[C@@H](CC(=O)N[C@H](C)c3ccccc3)O[C@H]1CO2 | > 10 µM (inactive)
Cc1nn(C)cc1NC(=O)C[C@H]1CC[C@@H]2[C@@H](COc3ccc(NC(=O)C4CCOCC4)cc3C(=O)N2C)O1 | > 10 µM (inactive)
COCC(=O)N1[C@H](CO)[C@H](c2ccccc2-c2ccccc2F)[C@@H]1C#N | > 10 µM (inactive)
O=C(CC1CC1)N1CC(=O)N2[C@H](CO)[C@H](c3ccc(C#Cc4cccc(F)c4)cc3)[C@@H]2C1 | > 10 µM (inactive)
COCC#Cc1ccc([C@@H]2[C@H]3CN(C(=O)Nc4ccccc4F)CC(=O)N3[C@H]2CO)cc1 | > 10 µM (inactive)
O=C(C[C@@H]1CC[C@@H]2[C@H](COC[C@@H](O)CN2C(=O)Nc2ccc(Cl)c(Cl)c2)O1)NCc1ccc(Cl)cc1 | > 10 µM (inactive)
O=C(C[C@@H]1CC[C@@H]2[C@H](COC[C@H](O)CN2C(=O)c2ccccc2)O1)Nc1ccc(-c2ccccc2)cc1 | > 10 µM (inactive)
O=C(Nc1ccccc1F)N1CC(=O)N2[C@H](C1)[C@H](c1ccc(-c3cccnc3)cc1)[C@@H]2CO | > 10 µM (inactive)
Cc1cccc(S(=O)(=O)N2CC[C@@H]3[C@H](CO)Nc4ccc(C#Cc5ccccc5F)cc4[C@@H]32)c1 | > 10 µM (inactive)
Cc1ccccc1-c1ccccc1[C@@H]1[C@H](C#N)N(C(=O)c2cccc(F)c2)[C@H]1CO | > 10 µM (inactive)
CN(C)CCCNC(=O)C[C@H]1CC[C@H]2[C@@H](COC[C@@H](O)CN2CC2CC2)O1 | > 10 µM (inactive)
O=C(Cc1ccccc1)N1C[C@@H]2[C@H](c3ccccc31)[C@@H](CO)N2C(=O)c1cccc(F)c1 | > 10 µM (inactive)
O=C(c1ccc2c(c1)OCO2)N1C[C@@H]2[C@H](c3ccccc31)[C@H](CO)N2C(=O)CC1CC1 | > 10 µM (inactive)
CC(C)CC#Cc1ccc([C@H]2[C@H]3CN(S(=O)(=O)c4cccc(F)c4)CC(=O)N3[C@H]2CO)cc1 | > 10 µM (inactive)
O=C(C[C@@H]1CC[C@H]2[C@@H](COC[C@@H](O)CN2Cc2ccc3c(c2)OCO3)O1)Nc1ccccc1 | > 10 µM (inactive)
